Laboratory results as given in article PMC4844702, “Selective inhibition of the kinase DYRK1A by targeting its folding process” (Nature Communications, 2016).

What was measured:
Assay in all cases: Kinase panel (Carna)
Assay type in all cases: biochemical
PDGFRα = biological target: T1, PDGFRα (Homo sapiens, UniProt P16234)
T1 construct: purchased Carna Biosciences
Text: (§1) Detailed information on the assay conditions is available on the website of Carna Biosciences (http://www.carnabio.com).

JAK1 = biological target: T2, JAK1 (Homo sapiens, UniProt P23458)
T2 construct: purchased Carna Biosciences
Text: as §1

TSSK2 = biological target: T3, TSSK2 (Homo sapiens, UniProt Q96PF2)
T3 construct: purchased Carna Biosciences
Text: as §1

CDC2/CycB1 = biological target: T4, CDC2/CycB1 (Homo sapiens, UniProt P06493)
T4 construct: purchased Carna Biosciences

AurC = biological target: T5, AurC (Homo sapiens, UniProt Q9UQB9)
T5 construct: purchased Carna Biosciences
Text: as §1

p38α = biological target: T6, p38α (Homo sapiens, UniProt Q16539)
T6 construct: purchased Carna Biosciences
Text: as §1

EPHA1 = biological target: T7, EPHA1 (Homo sapiens, UniProt P21709)
T7 construct: purchased Carna Biosciences

CHK2 = biological target: T8, CHK2 (Homo sapiens, UniProt O96017)
T8 construct: purchased Carna Biosciences

FAK = biological target: T9, FAK (Homo sapiens, UniProt Q05397)
T9 construct: purchased Carna Biosciences
T9 sequence (Q05397 whole entry): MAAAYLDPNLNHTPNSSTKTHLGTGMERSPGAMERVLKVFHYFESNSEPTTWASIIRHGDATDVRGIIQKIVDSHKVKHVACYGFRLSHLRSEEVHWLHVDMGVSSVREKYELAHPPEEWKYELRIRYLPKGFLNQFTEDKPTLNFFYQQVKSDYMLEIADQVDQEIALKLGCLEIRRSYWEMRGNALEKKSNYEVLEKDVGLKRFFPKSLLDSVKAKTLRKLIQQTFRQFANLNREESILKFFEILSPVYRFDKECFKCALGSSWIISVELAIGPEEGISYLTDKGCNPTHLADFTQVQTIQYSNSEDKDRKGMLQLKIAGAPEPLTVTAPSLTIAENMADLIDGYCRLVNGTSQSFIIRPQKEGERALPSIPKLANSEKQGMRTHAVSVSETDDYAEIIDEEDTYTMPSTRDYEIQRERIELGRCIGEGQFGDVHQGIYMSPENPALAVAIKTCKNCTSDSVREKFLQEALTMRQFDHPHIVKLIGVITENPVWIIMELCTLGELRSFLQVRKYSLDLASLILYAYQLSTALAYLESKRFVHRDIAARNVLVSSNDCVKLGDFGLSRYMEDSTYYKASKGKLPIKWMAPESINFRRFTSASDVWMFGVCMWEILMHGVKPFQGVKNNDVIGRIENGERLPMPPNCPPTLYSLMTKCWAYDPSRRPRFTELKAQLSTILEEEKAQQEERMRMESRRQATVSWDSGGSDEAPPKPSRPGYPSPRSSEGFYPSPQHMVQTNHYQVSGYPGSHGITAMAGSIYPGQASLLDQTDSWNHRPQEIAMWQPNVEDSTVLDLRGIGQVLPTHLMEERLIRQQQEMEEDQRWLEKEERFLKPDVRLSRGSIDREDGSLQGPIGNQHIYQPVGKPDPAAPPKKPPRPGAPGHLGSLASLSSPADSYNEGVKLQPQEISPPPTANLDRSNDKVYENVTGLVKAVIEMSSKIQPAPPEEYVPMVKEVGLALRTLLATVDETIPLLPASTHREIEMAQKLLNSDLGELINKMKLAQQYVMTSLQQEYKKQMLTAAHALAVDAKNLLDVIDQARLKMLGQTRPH
Text: as §1

skMLCK = biological target: T10, skMLCK (Homo sapiens, UniProt Q9H1R3)
T10 construct: purchased Carna Biosciences

MARK4 = biological target: T11, MARK4 (Homo sapiens, UniProt Q96L34); conditions: 10 µM FINDY
T11 construct: purchased Carna Biosciences
Text: as §1

DDR2 = biological target: T12, DDR2 (Homo sapiens, UniProt Q16832)
T12 construct: purchased Carna Biosciences

TAK1-TAB1_Cascade = biological target: T13, TAK1-TAB1_Cascade (Homo sapiens, UniProt O43318)
T13 construct: purchased Carna Biosciences
Text: as §1

PKCδ = biological target: T14, PKCδ (Homo sapiens, UniProt Q05655)
T14 construct: purchased Carna Biosciences
Text: as §1

CK1γ2 = biological target: T15, CK1γ2 (Homo sapiens, UniProt P78368)
T15 construct: purchased Carna Biosciences

GSK3α = biological target: T16, GSK3α (Homo sapiens, UniProt P49840)
T16 construct: purchased Carna Biosciences

PDHK4 = biological target: T17, PDHK4 (Homo sapiens, UniProt Q16654)
T17 construct: purchased Carna Biosciences
T17 sequence (Q16654 whole entry): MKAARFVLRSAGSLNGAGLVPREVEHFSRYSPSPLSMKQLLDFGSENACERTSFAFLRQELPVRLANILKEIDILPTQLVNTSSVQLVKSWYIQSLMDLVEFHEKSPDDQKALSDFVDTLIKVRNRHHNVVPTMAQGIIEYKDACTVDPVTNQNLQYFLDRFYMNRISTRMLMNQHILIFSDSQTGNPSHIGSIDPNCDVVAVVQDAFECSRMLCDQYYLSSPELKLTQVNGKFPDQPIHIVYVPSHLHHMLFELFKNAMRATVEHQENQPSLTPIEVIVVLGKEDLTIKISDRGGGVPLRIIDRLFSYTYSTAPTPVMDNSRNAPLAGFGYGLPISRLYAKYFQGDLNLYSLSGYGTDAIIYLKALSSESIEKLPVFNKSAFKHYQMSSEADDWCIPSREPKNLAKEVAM
Text: as §1

PASK = biological target: T18, PASK (Homo sapiens, UniProt Q96RG2)
T18 construct: purchased Carna Biosciences
T18 sequence (Q96RG2 whole entry): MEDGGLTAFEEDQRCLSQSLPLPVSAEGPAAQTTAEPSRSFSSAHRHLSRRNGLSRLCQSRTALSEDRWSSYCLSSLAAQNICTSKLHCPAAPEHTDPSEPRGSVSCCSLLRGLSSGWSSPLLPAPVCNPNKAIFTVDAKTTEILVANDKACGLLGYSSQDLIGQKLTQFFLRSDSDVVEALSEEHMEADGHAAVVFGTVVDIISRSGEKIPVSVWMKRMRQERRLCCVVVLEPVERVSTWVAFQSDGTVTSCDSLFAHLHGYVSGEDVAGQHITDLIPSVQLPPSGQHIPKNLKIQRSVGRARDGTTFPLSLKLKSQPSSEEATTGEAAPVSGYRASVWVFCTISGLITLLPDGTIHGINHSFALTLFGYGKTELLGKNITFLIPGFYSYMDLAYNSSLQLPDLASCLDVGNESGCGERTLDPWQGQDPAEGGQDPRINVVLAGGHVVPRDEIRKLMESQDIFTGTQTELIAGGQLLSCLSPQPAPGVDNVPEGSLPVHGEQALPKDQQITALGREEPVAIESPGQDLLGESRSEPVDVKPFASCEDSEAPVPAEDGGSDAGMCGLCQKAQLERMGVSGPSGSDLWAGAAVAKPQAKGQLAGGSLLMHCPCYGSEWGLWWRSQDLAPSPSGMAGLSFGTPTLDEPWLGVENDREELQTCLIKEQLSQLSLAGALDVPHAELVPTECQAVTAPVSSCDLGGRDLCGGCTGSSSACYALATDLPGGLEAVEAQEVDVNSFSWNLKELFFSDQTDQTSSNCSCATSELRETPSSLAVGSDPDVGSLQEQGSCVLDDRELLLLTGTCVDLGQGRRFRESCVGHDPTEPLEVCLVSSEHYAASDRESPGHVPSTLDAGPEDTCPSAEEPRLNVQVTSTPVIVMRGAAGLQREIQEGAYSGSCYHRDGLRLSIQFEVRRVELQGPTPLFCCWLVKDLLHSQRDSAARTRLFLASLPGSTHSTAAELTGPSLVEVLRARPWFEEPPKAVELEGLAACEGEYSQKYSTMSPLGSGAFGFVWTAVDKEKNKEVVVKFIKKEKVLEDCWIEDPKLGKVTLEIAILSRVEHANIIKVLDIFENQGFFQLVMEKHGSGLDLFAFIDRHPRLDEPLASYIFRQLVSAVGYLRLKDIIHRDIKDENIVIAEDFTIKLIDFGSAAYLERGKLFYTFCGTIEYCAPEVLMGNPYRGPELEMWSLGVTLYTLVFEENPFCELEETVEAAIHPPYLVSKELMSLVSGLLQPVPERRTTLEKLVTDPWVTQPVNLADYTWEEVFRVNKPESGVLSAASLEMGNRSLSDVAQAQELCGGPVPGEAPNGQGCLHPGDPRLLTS
Text: as §1

WNK2 = biological target: T19, WNK2 (Homo sapiens, UniProt Q9Y3S1)
T19 construct: purchased Carna Biosciences
T19 sequence (Q9Y3S1 166-489 limits assumed): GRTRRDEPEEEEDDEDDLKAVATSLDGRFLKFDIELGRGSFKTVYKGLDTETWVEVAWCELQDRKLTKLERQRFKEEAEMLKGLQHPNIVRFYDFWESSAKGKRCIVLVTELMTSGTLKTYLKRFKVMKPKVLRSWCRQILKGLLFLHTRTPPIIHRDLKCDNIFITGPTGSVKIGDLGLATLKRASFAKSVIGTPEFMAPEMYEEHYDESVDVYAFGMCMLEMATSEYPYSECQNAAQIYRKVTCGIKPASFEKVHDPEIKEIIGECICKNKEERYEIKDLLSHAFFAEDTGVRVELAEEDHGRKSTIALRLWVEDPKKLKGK
Text: as §1

PIM1 = biological target: T20, PIM1 (Homo sapiens, UniProt P11309); conditions: 10 µM FINDY
T20 construct: purchased Carna Biosciences
Text: as §1

PHKG2 = biological target: T21, PHKG2 (Homo sapiens, UniProt P15735)
T21 construct: purchased Carna Biosciences
T21 sequence (P15735 whole entry): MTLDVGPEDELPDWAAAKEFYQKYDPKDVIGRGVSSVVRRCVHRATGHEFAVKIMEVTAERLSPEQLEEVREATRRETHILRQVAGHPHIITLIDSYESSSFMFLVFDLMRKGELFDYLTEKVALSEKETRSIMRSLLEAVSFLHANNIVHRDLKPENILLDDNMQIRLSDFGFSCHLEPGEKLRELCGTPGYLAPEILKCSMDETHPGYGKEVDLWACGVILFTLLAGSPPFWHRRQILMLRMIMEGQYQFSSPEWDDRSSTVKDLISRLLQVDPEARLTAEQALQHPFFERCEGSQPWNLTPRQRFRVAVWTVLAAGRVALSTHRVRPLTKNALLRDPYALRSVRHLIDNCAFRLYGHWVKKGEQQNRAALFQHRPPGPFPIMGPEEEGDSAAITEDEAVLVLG
Text: as §1

EPHA5 = biological target: T22, EPHA5 (Homo sapiens, UniProt P54756)
T22 construct: purchased Carna Biosciences

HER4 = biological target: T23, HER4 (Homo sapiens, UniProt Q15303)
T23 construct: purchased Carna Biosciences
Text: as §1

SGK2 = biological target: T24, SGK2 (Homo sapiens, UniProt Q9HBY8)
T24 construct: purchased Carna Biosciences

p38γ = biological target: T25, p38γ (Homo sapiens, UniProt P53778)
T25 construct: purchased Carna Biosciences
Text: as §1

LOK = biological target: T26, LOK (Homo sapiens, UniProt O94804)
T26 construct: purchased Carna Biosciences

HIPK3 = biological target: T27, HIPK3 (Homo sapiens, UniProt Q9H422)
T27 construct: purchased Carna Biosciences
Text: as §1

LYNa = biological target: T28, LYNa (Homo sapiens, UniProt P07948)
T28 construct: purchased Carna Biosciences
Text: as §1

TRKB = biological target: T29, TRKB (Homo sapiens, UniProt Q16620)
T29 construct: purchased Carna Biosciences
Text: as §1

Haspin = biological target: T30, Haspin (Homo sapiens, UniProt Q8TF76)
T30 construct: purchased Carna Biosciences

CK1δ = biological target: T31, CK1δ (Homo sapiens, UniProt P48730)
T31 construct: purchased Carna Biosciences
T31 sequence (P48730 whole entry): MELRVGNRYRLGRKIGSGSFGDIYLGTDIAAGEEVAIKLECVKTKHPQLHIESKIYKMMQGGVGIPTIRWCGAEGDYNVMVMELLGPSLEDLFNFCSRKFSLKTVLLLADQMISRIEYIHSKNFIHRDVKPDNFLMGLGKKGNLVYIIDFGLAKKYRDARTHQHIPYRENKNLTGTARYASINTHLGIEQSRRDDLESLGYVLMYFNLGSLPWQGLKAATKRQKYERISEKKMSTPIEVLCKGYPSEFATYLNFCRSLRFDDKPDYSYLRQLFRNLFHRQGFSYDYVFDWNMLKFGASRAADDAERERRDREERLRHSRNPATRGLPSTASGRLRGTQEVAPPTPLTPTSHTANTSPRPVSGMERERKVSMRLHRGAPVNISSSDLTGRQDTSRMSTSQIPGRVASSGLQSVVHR

PLK1 = biological target: T32, PLK1 (Homo sapiens, UniProt P53350)
T32 construct: purchased Carna Biosciences

PKCγ = biological target: T33, PKCγ (Homo sapiens, UniProt P05129)
T33 construct: purchased Carna Biosciences
Text: as §1

CK1γ1 = biological target: T34, CK1γ1 (Homo sapiens, UniProt Q9HCP0)
T34 construct: purchased Carna Biosciences
T34 sequence (Q9HCP0 whole entry): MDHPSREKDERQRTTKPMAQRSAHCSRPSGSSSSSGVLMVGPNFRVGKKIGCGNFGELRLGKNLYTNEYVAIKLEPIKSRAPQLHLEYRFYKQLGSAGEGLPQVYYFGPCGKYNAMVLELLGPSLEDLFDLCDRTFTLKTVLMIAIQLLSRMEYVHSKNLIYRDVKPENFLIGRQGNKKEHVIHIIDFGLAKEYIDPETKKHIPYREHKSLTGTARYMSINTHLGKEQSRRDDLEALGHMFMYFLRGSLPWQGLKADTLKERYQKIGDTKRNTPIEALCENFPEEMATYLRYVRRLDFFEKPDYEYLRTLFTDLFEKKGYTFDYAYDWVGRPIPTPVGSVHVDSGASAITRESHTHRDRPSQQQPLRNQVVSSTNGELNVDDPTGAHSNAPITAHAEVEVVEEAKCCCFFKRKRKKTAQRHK

EPHA6 = biological target: T35, EPHA6 (Homo sapiens, UniProt Q9UF33)
T35 construct: purchased Carna Biosciences

PKCθ = biological target: T36, PKCθ (Homo sapiens, UniProt Q04759)
T36 construct: purchased Carna Biosciences
Text: as §1

AMPKα2/β1/γ1 = biological target: T37, AMPKα2/β1/γ1 (Homo sapiens, UniProt P54646)
T37 construct: purchased Carna Biosciences
Text: as §1

MARK2 = biological target: T38, MARK2 (Homo sapiens, UniProt Q7KZI7)
T38 construct: purchased Carna Biosciences
Text: as §1

MAP2K1_Cascade = biological target: T39, MAP2K1_Cascade (Homo sapiens, UniProt Q02750)
T39 construct: purchased Carna Biosciences
T39 sequence (Q02750 whole entry): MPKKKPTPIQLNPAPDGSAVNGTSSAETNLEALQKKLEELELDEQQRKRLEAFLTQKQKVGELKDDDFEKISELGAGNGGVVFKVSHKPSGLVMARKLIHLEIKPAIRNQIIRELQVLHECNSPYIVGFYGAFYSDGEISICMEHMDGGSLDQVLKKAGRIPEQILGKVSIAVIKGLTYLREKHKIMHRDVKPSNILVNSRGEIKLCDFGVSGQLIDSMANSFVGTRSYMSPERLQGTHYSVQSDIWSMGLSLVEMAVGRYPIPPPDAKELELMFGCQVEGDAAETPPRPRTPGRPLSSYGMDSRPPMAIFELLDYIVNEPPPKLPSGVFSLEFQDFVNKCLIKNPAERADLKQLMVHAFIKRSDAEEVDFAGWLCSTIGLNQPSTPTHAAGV

ROCK2 = biological target: T40, ROCK2 (Homo sapiens, UniProt O75116)
T40 construct: purchased Carna Biosciences

BRAF_Cascade = biological target: T41, BRAF_Cascade (Homo sapiens, UniProt P15056)
T41 construct: purchased Carna Biosciences
Text: as §1

FGFR4 = biological target: T42, FGFR4 (Homo sapiens, UniProt P22455)
T42 construct: purchased Carna Biosciences

EEF2K = biological target: T43, EEF2K (Homo sapiens, UniProt O00418)
T43 construct: purchased Carna Biosciences
Text: as §1

PYK2 = biological target: T44, PYK2 (Homo sapiens, UniProt Q14289)
T44 construct: purchased Carna Biosciences
Text: as §1

Work on `COc1ccc(/C=C2\SC(=S)NC2=O)cc1C#C[Si](C)(C)C` [FINDY] yielded an inhibition at 10 µM (PDGFRα) of 14.8%, an inhibition at 10 µM (JAK1) of 5.7% and an inhibition at 10 µM (TSSK2) of 39.9%. For the same compound, the inhibition at 10 µM (CDC2/CycB1) was 43.4%, the inhibition at 10 µM (AurC) was 40.1% and the inhibition at 10 µM (p38α) was 10.6%. It also gave an inhibition at 10 µM (EPHA1) of 40.5%, an inhibition at 10 µM (CHK2) of 6.3% and an inhibition at 10 µM (FAK) of 7.3%. The inhibition at 10 µM (skMLCK) was 2%, the inhibition at 10 µM (MARK4) was 79.8% and the inhibition at 10 µM (DDR2) was 13.5%. For the same compound, the inhibition at 10 µM (TAK1-TAB1_Cascade) was 52.7%, the inhibition at 10 µM (PKCδ) was -1.3% and the inhibition at 10 µM (CK1γ2) was 27.7%. The inhibition at 10 µM (GSK3α) was 43.4%, the inhibition at 10 µM (PDHK4) was 14.8% and the inhibition at 10 µM (PASK) was 11.9%. It also gave an inhibition at 10 µM (WNK2) of 12.3%, an inhibition at 10 µM (PIM1) of 76.8% and an inhibition at 10 µM (PHKG2) of 1.9%. The inhibition at 10 µM (EPHA5) was 18.4%, the inhibition at 10 µM (HER4) was -13.4% and the inhibition at 10 µM (SGK2) was 30.9%. The inhibition at 10 µM (p38γ) was 5%, the inhibition at 10 µM (LOK) was -28.2% and the inhibition at 10 µM (HIPK3) was 7.1%. It also gave an inhibition at 10 µM (LYNa) of 4%, an inhibition at 10 µM (TRKB) of 4.9% and an inhibition at 10 µM (Haspin) of 30.3%. For the same compound, the inhibition at 10 µM (CK1δ) was 29.1%, the inhibition at 10 µM (PLK1) was 23.7% and the inhibition at 10 µM (PKCγ) was 4.1%. The inhibition at 10 µM (CK1γ1) was 19.9%, the inhibition at 10 µM (EPHA6) was 59.4% and the inhibition at 10 µM (PKCθ) was 6.5%. It also gave an inhibition at 10 µM (AMPKα2/β1/γ1) of 1.7%, an inhibition at 10 µM (MARK2) of 60.8% and an inhibition at 10 µM (MAP2K1_Cascade) of 44.2%. The inhibition at 10 µM (ROCK2) was -2%, the inhibition at 10 µM (BRAF_Cascade) was 33.9% and the inhibition at 10 µM (FGFR4) was 6.9%. It also gave an inhibition at 10 µM (EEF2K) of -3.7% and an inhibition at 10 µM (PYK2) of 3.6%.
